Measurements: US20250154238A1, “METHODS AND COMPOSITIONS FOR TREATING AND PREVENTING FIBROSIS” (YALE UNIVERSITY, priority 2022, published 2025)

Assays:
[1] = tested on: lung explants from a patient with IPF; experiment: IPF patient lung explant culture, gene expression and secreted proteins; assay type: cell-based, human; details: 10 days; nintedanib 0.1 μM, Alk5i 10 μM, Ereg Ab 2.5 μg/ml
Protocol: FIGS. 13A-13I show epiregulin inhibition reduces mouse and human lung fibrosis. (FIGS. 13A-13E) As diagramed in (FIG. 13A), 10 days after intratracheal bleomycin mice began treatment with epiregulin antibody for two weeks prior to euthanasia. Lungs were analyzed for histology (FIG. 13B), modified Ashcroft score (FIG. 13C), hydroxyproline (FIG. 13D) and epiregulin gene expression (FIG. 13E), n=6 (PBS), 11 (BLM), and 7 (Ereg Ab). Histology images in (FIG. 13B) are 10× magnification with 200 μm scale bars and IHC images are 40× magnification with 40 μm scale bars. […] The same tissue was cut into cubes and cultured for 10 days in the presence of the multikinase inhibitor nintedanib 0.1 μM (Nin), the Alk5 inhibitor A-1544033 (IN-1130) 10 μM (Alk5i), epiregulin antibody 2.5 μg/ml (Ereg Ab) or non-treated vehicle control (NT). (FIGS. 13G-13I) Relative expression of indicated genes, n=4 per group. (FIG. 13I) Protein secretion of indicated genes measured by ELISA, n=8 per group. ELISA samples with poor signal and qPCR outliers identified by Grubbs's test with alpha-0.05 were excluded. Data are means±SD (ns, not significant. * P<0.05, ** P<0.01, **** P<0.0001) analyzed with one-way analysis of variance (ANOVA) with Tukey multiple-comparisons test (FIGS. 13C-13E) and Dunnett's multiple-comparisons test (FIGS. 13G-13I).
Pathologic assessment confirmed the diagnosis of early IPF, as evidenced by the presence of fibroblastic foci and hyperplasia of alveolar type II epithelial cells as shown in FIG. 13F. Lung tissue was plated in 24 well plates and cultured for 10 days with media changes every two days. The impact of epiregulin antibody compared to the multikinase inhibitor nintedanib and a transforming growth factor beta type I receptor TGF-βRI/Alk5 small molecule inhibitor was assessed by measuring disease relevant endpoints in gene expression and protein production. At the gene level, reduction in epiregulin expression was observed which was similar to that seen in mouse lung by both epiregulin and TGF-βRI inhibition (FIG. 13G, left panel). […] ECM-remodeling and inflammation. […]
For lung explants, human IPF lung (person) was obtained from the National Disease Research Interchange (NDRI), kept cold, and received <24 hours after cross-clamp. […] After 10 days, culture supernatants were collected, pre-cleared at 4000× g (4° C. 10 mins), transferred to a clean 96 well polypropylene plate and stored at −80° C., until protein endpoints measured. Measured secreted proteins include: human MCP-1 V-Plex (MesoScale Discovery, K151NND-1), human TIMP-1 (MesoScale Discovery, K151JFC-1) and human pro-collagen 1α1 DuoSet Elisa (R&D systems, DY6220-05). All proteins were assayed and analyzed in accordance with their respective assay product datasheets. […]

[2] = data from European Medicines Agency; tocilizumab from reference 80; cited from earlier work
[3] = data from European Medicines Agency; read-out: KD (×10^−12); cited from earlier work

Row | Molecule | COL1A1 gene expression, IPF lung explant [1] | epiregulin gene expression, IPF lung explant [1] | pro-COL1A1 protein level, IPF lung explant [1] | IC50 [2] [nM] | Kd [3] [nM]
1 | Cc1cccc(-c2[nH]c(Cc3cccc(C(N)=O)c3)nc2-c2ccc3nccnc3c2)n1 [TGF-βRI/Alk5 small molecule inhibitor] | significantly reduced expression | reduction | significant reduction | – | –
2 | COC(=O)c1ccc2c(c1)NC(=O)/C2=C(\Nc1ccc(N(C)C(=O)CN2CCN(C)CC2)cc1)c1ccccc1 [nintedanib] | – | – | significant reduction | – | –
3 | Adalimumab | – | – | – | 0.1 to 1 | 0.058 to 0.087
4 | Rizankizumab: FDA-approved monoclonal antibody medication | – | – | – | 0.024 | 0.029
5 | Tocilizumab: FDA-approved monoclonal antibody medication | – | – | – | 0.09 | 2.5
